“And” between values parts separate entries of the source, which are not always exact repeats. Equal values may be shown once. Ends that are not written are not given here.
Legend:
SUP-T1 cells = assay: Flow cytometry of SUP-T1 cells sensitized with CD8-PR34+ conjugate, biotinylated 9C5 and streptavidin-PE, with or without free peptide; assay type: cell-based, human; conditions: SUP-T1 cells stained with conjugate, biotinylated 9C5, streptavidin-PE; free peptide 5.0 mg/ml, 15 min; FIG. 2
Procedure: For flow cytometry experiments, SUP-T1 cells were used. SUP-T1 is a T-lymphoma-derived tumor cell line known to express typical T cell surface markers. The SUP-T1 cells were prepared for flow cytometry and sequentially sensitized with the CD8 antibody-PR34+ peptide (CD8-PR34+) conjugate, biotinylated 9C5, and phycoerythrin-labeled (PE-labeled) streptavidin. The SUP-T1 cells were incubated with either streptavidin-PE; sequentially with the CD8-PR34+ conjugate, biotinylated 9C5, followed by streptavidin-PE; or sequentially with CD8-PR34+ conjugate, biotinylated 9C5, streptavidin-PE, followed by a 15 min incubation with free PR34+™ peptide. The SUP-T1 cells were then analyzed by flow cytometry. All incubations were performed in a mixture of Dulbecco's phosphate buffered saline (GibcoBRL), 0.05% azide, 1.0% human serum albumin (PAH). All incubations were for 15 min at room temperature and each was followed by a wash with 1.0 ml PAH. The stained cells were resuspended in 0.25 ml PAH for flow cytometry. SUP-T1 cells (1×10^6) were stained with 1 μg of either the CD8-9069N or the CD34-biotin. The peptide was used at 5.0 mg/ml.

CD8+ cells = assay: Positive selection of CD8+ cells from a mononuclear cell preparation; assay type: cell-based, human; conditions: condition 2: biotinylated CD8 antibody capture; incubation with free PR34+ peptide
Procedure: To test the ability of the CD8-PR34+ conjugate to isolate CD8+ cells from a population, mononuclear cells (MNCs), which contain CD8+ cells, were prepared. Mononuclear cells were collected from human donors. Mononuclear cells were collected from a G-CSF mobilized human donor using a CS-3000™ (Baxter) following the protocol of the manufacturer. The starting population of MNCs was 19.42% CD3+/8+. For each rosetting reaction, a quantity of MNCs containing 2×10^6 CD8+ cells was used. Biotinylated CD8 antibody (MT-415) was biotinylated essentially as described in Example I. The MNCs were incubated under three conditions. In condition 1, MNCs were incubated with streptavidin beads alone. In condition 2, MNCs were incubated with biotinylated CD8 antibody, followed by streptavidin beads. In condition 3, MNCs were incubated with CD8-PR34+ conjugate, followed by biotinylated 9C5 and streptavidin beads. After incubation with streptavidin beads, the free cells were removed, and the cells attached to streptavidin beads were incubated with free PR34+™ peptide. The released cells were counted, and the number of CD8+ cells was evaluated using flow cytometry. The CD8+ cells were quantitated using a combination of CD3 and […]. CD3 is a pan T cell marker, and CD3+ populations can be further subdivided into mutually exclusive CD4+ and CD8 positive populations. […]

CD2+ T cells = assay: Positive selection of CD2+ T cells using CD2-9069N, b-9069 and streptavidin beads; assay type: cell-based, human; conditions: release reagent 9069N 2.5 mg; for % T-cells released: 30 min./RT
Description: To test the ability of a PR34+ peptide-conjugate to isolate a different cell type, the PR34+TM peptide was coupled to a CD2 antibody (B-E2; IgG2b isotype; Diaclone; Besancon, France) essentially as described in Example T. The PR34+TM peptide, also designated […], conjugated to the CD2 antibody was designated CD2-[…]. The biotinylated 9C5 antibody, also known as the 9069 antibody, was designated b-9069. Either mobilized or non-mobilized MNC preparations (see Example III) were used, with similar results. Cells were incubated with 1 μg or 5 μg of CD2-[…] conjugate for 15 min at room temperature (see Table 3). The cells were then incubated with 1 μg or 10 μg of biotinylated 9C5 antibody (b-9069) and streptavidin beads. Bound cells were subsequently incubated with either buffer or 2.5 mg of free PR34+TM peptide ([…]). Incubation conditions were essentially as described in Example II. The released cells were then quantitated and the purity determined. Purity and cell counts were assessed using an anti-CD3 antibody and the True Count flow cytometty quantitation method (Becton Dickenson; San Jose Calif.).

CD2 T cells = assay: T cell selection using CD2-PR34 conjugate and capture by direct binding of CD34 antibody to Dynabeads; assay type: cell-based, human; conditions: for % Purity / % Yield: release agent PR34+ 2.5 mg
Procedure: The CD2 antibody B-E2 was conjugated to PR34™ peptide essentially as described in Example IV. MNCs were incubated essentially as described in Example IV using CD2-PR34 conjugate. The cells were then incubated with the CD34 antibody 9069 coated on M-450 Dynabeads (Dynal). The CD34 antibody coated beads were prepared by absorbing various amounts of anti-CD34 antibody on the bead surface. The beads were prebound with 0, 1, 5, 20, or 50 μg of antibody per 108 beads. As a control, an aliquot of cells was incubated with streptavidin coated Dynabeads.

Camma cells = assay: Positive selection of Camma cells using Pan-O-5-PR34 conjugate and anti-CD34-coated Dynabeads; assay type: cell-based; conditions: PR34 peptide 5 mg/ml, 30 min room temperature; FIG. 5, N=1
Procedure: To prepare antibody-coated beads, Dynabeads (Dynal) were washed with Dulbecco's phosphate buffered saline (D-PBS). Washed beads were coated with 50 μg anti-CD34 monoclonal antibody per 10^8 beads for 24 hours at 4° C. The beads were washed twice with Isolex buffer and incubated with 1% albumin in the Isolex buffer for 24 hours at 4° C.
To synthesize the Pan-O-5-PR34 conjugate, the Pan-O-5 monoclonal antibody was incubated with N-(ε-maleimidocaproyloxy)succinimide ester for 30 min at room temperature to generate an antibody-linker complex. The antibody-linker complex was washed twice with D-PBS using an Amicon spin column (30 KD; Millipore Corp.; Bedford Mass.). The Pan-O-5-antibody-linker complex was incubated with PR34™ peptide for 30 min at room temperature. The Pan-O-5-linker-PR34 antibody complex was washed twice with D-PBS using an Amicon spin column. The concentration of the conjugate was determined by absorbance at 280 nm.
Cells (18×10^6) were incubated with Pan-O-5-linker-PR34 antibody (5 μg/ml) for 15 min. The cell-antibody complex was washed twice with Isolex buffer and incubated with anti-CD34-coated Dynabeads (5 beads per cell) for 30 min at room temperature. The Dynabeads were isolated with a magnet, and unbound cells were removed. The bead-cell fraction was incubated with PR34™ peptide (5 mg/ml) for 30 min at room temperature. […]

[1] = SA: streptavidin coated Dynabead control

Ac-QQGWFPKD [PR34+™ peptide, peptide capable of displacing the anti-CD34 antibody 9C5 (9069); used free as release agent]
fluorescent signal after addition of free peptide (SUP-T1 cells): eliminated the fluorescent signal | % Yield (CD8+ cells): less than 3% | % Purity (CD3+) (CD2+ T cells; CD2-9069N 1 μg, b-9069 1 μg): 89% | % T-cells released (CD2+ T cells; CD2-9069N 1 μg, b-9069 1 μg): 71% | % Purity (CD3+) (CD2+ T cells; CD2-9069N 1 μg, b-9069 10 μg): 87% and 74% | % T-cells released (CD2+ T cells; CD2-9069N 1 μg, b-9069 10 μg): 87% and 65% | % Purity (CD3+) (CD2+ T cells; CD2-9069N 5 μg, b-9069 1 μg): 88% and 81% | % T-cells released (CD2+ T cells; CD2-9069N 5 μg, b-9069 1 μg): 61% and 56% | % Purity (CD3+) (CD2+ T cells; CD2-9069N 5 μg, b-9069 10 μg): 70% | % T-cells released (CD2+ T cells; CD2-9069N 5 μg, b-9069 10 μg): 50% | % Purity (CD2 T cells; 1 μg antibody per 10^8 beads): 92.4% | % Yield (CD2 T cells; 1 μg antibody per 10^8 beads): 55.9% | % Purity (CD2 T cells; 5 μg antibody per 10^8 beads): 91.3% | % Yield (CD2 T cells; 5 μg antibody per 10^8 beads): 68.9% | % Purity (CD2 T cells; 20 μg antibody per 10^8 beads): 91.8% | % Yield (CD2 T cells; 20 μg antibody per 10^8 beads): 47.4% | % Purity (CD2 T cells; 50 μg antibody per 10^8 beads): 91.4% | % Yield (CD2 T cells; 50 μg antibody per 10^8 beads): 57.5% | % Purity (CD2 T cells; [1]): 94.5% | % Yield (CD2 T cells; [1]): 81.5% | purity of the cells released by free peptide (CD2 T cells; summary, antibody-coated beads): greater than 90% | yield of CD2 cells (CD2 T cells; summary, antibody-coated beads incubated with free PR34+ peptide): ≥ 50% | cells released (Camma cells): Greater than 75%

Reference: patent US20030119070A1, “Reagents for cell selection and methods of use” (Nexell Therapeutics, Inc., priority 2000, published 2003)
